Measurements reported in patent USRE47267E1, “Pyridinecarboxamides as CXCR2 modulators” (Syntrix Biosystems, Inc., priority 2009, dated 2019).

How the values were obtained:
CXCR2 [1] = target: T1, CXCR2 (Homo sapiens (Human), UniProt P25025); test: In vitro agonist activity: intracellular calcium release in human neutrophils in the absence of GROα; format: cell-based
[2] = Crossover pharmacokinetic experiment in Beagle dogs; format: in vivo; conditions: for plasma level: dosed to Beagle dogs without excipient, data not shown
Description: In this study, male Beagle dogs (n=5) were dosed intravenously on study day 1 with SX-576 in dimethylformamide/PEG400/saline (40:40:20) at a dose level of 5 mg/kg and a dose volume of 0.5 mL/kg. Blood samples were taken predose, and at time points 30, 60, 90, 120, 180, 360, 540 and 720 minutes. The blood was collected in tubes containing K2EDTA as an anticoagulant, and the tubes were centrifuged and the plasma fractions collected and frozen. After a one-week washout period, the same Beagle dogs were dosed orally with SX-576 in lipid based excipient Gelucire® 44/14 (Gattefosse) at a dose level of 5 mg/kg. Blood samples were then taken and plasma fractions collected as previously described. Prior to analysis, the plasma samples were thawed and diluted 1:3 into acetonitrile containing 1 μM of compound 153 as an internal standard. The resulting samples were centrifuged and the supernatant analyzed by LC-MS monitoring in multiple reaction monitoring mode. The samples were run concomitantly with a calibration curve of SX-576 in the same internal standard solution.
(§1) The lipid based excipient Gelucire® 44/14 is a self-emulsifying drug delivery system (SEDDS) that is able to solubilize both SX-517 and SX-576 into aqueous solutions via micellular formation. […] Therefore, lipid-based emulsifiers are important excipients for the oral delivery of SX-576.

Aqueous solubility = format: physicochemical
Text: as §1

neutrophil influx [3] = test: Murine air pouch model of neutrophil chemotaxis (p.o.); format: in vivo, male CD-1 mice; conditions: for total neutrophil counts in the blood: high doses, compared to control animals, data not shown
Description: Compounds 1 (SX-517) and 2 (SX-576) were also assayed in an in vivo air-pouch model of inflammation. SX-517 and SX-576 were able to attenuate neutrophil influx in the air-pouch model by about 50% at an oral dose of 0.2 and 0.05 mg/kg, respectively. […] More specifically, the procedure was performed by forming an air pouch on the backs of male CD-1 mice via the subcutaneous injection of air (2 mL). The next day, an additional subcutaneous injection of air (1.5 mL) was performed to reinflate the air pouch. The mice were given either vehicle control (Labrasol®) or test compound solubilized in Labrasol® via oral gavage. After 3 hours, either sterile phosphate buffered saline (PBS, 1 ml) or 2% carrageenan in sterile PBS (1 mL) was injected into the air pouch. After 4 hours, the mice were sedated with ketamine, and sacrificed by cervical dislocation. The exudate in the air pouch was collected by syringe, with an additional 2 mL wash with sterile PBS. The neutrophils were stained with trypan blue and counted on a hemocytometer under 20× magnification.

CXCR2 [4] = target: T1, CXCR2; test: β-arrestin recruitment to CXCR2 (β-galactosidase fragment complementation, DiscoveRx); conditions: for inhibition of β-arrestin recruitment following CXCR2 activation with IL-8: FIG. 2; for activity on β-arrestin complexation with CXCR2 in the absence of IL8: FIG. 3
neutrophil influx [5] = test: Murine air pouch model of neutrophil chemotaxis (i.v.); format: in vivo, male CD-1 mice; conditions: all tested dose levels 0.02, 0.05, 0.2 and 1.0 mg/kg, FIG. 6
Description: The procedure was performed by forming an air pouch on the backs of male CD-1 mice via the subcutaneous injection of air (2 mL). The next day, an additional subcutaneous injection of air (1.5 mL) was performed to reinflate the air pouch. The mice were given either vehicle control (dimethylformamide/PEG400/saline) or test compound solubilized in vehicle via tail vein injection. After 30 minutes, either sterile phosphate buffered saline (PBS, 1 ml) or 2% carrageenan in sterile PBS (1 mL) was injected into the air pouch. After 4 hours, the mice were sedated with ketamine, and sacrificed by cervical dislocation. The exudate in the air pouch was collected by syringe, with an additional 2 mL wash with sterile PBS. The neutrophils were stained with trypan blue and counted on a hemocytometer under 20× magnification.

CXCR2 [6] = target: T1, CXCR2; test: Wash-resistant inhibition of GROα-mediated intracellular calcium release in isolated human neutrophils; format: cell-based; conditions: 0.4, 2 and 10 μM, 30 min incubation, washed; time points out to 6 hours; FIG. 1
[7] = test system: ozone-induced pulmonary inflammation; test: Ozone rat model of pulmonary inflammation; format: in vivo, Sprague-Dawley rats; conditions: 1 mg/kg i.v. at t=0, 5, 9 h, 1 ppm ozone 4 h
Description: Activity in this model of pulmonary inflammation would provide direct relevance towards the treatment of a number of pulmonary inflammatory diseases, including chronic obstructive pulmonary disease (COPD) and bronchopulmonary dysplasia (BPD). In this experiment, Sprague-Dawley rats (n=4 per cohort) were dosed intravenously at t=0 with either vehicle (negative and positive groups, dimethylformamide/PEG400/saline, 40:40:20) or SX-576 (1 mg/kg). The rats were then placed in air (negative group) or 1 ppm ozone (positive and SX-576 groups) for 4 hours. The rats were dosed again at t=5 and 9 hours. The rats were then sacrificed at t=24 hours, and the bronchoalveolar lavage fluid (BALF) was collected. The cells were spun down, stained with Wright-Giemsa and counted. In the negative groups, no neutrophils were observed when stained. As a measure of lung leakage/damage, protein levels were quantified in BALF by Bradford protein assay analysis.

CXCR2 [8] = target: T1, CXCR2; test: Inhibition of GROα-mediated intracellular calcium release in human neutrophils (FLIPR-3 Ca2+ mobilization assay); format: cell-based; conditions: GROα 25 nM

T1 sequence (P25025 whole entry): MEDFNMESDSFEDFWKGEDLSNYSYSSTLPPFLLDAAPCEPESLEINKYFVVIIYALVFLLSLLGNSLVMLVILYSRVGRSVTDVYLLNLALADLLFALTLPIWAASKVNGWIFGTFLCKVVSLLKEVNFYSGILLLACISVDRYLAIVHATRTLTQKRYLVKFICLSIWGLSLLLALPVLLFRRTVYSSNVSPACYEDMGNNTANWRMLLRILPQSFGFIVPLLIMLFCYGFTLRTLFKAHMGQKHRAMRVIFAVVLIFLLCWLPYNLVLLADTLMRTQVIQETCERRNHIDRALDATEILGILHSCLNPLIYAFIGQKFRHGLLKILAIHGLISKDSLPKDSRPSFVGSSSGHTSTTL

plasma level [2]	aqueous solubility (Aqueous solubility)	total neutrophil counts in the blood (neutrophil influx [3])	inhibition of β-arrestin recruitment following CXCR2 activation with IL-8 (CXCR2 [4])	activity on β-arrestin complexation with CXCR2 in the absence of IL8 (CXCR2 [4])	IC50 (CXCR2 [8])	Structure (SMILES)	further results
undetected	poor	not significantly changed	inhibited arrestin recruitment	acted as inverse agonists		O=C(Nc1ccc(F)cc1)c1ccc(SCc2ccccc2B(O)O)nc1 [Compound 1, 6-(2-borono-2-yl-benzylsulfanyl)-N-(4-fluoro-phenyl)-nicotinamide]	agonist activity with respect to the release of intracellular calcium (CXCR2 [1]; listed as 1 (SX-517)): did not show agonist activity; agonist activity with respect to the release of intracellular calcium (CXCR2 [1]; listed as SX-517): did not exhibit any agonist activity; neutrophil influx (neutrophil influx [3]; 0.005 and 0.2 p.o., FIG. 4): decrease of neutrophil influx; neutrophil influx (neutrophil influx [3]; doses in excess of 10 mg/kg p.o., FIG. 4): increase in neutrophil influx
undetected	poor	not significantly changed	inhibited arrestin recruitment	acted as inverse agonists		O=C(Nc1ccc(F)cc1)c1ccc(SCc2cc(OC(F)(F)F)ccc2B(O)O)nc1 [Compound 2, 6-(2-boronic acid-5-trifluoromethoxy-benzylsulfanyl)-N-(4-fluoro-phenyl)-nicotinamide]	neutrophil influx (neutrophil influx [5]): significantly attenuate neutrophil influx; inhibition of GROα mediated intracellular calcium release after inhibitor washout (CXCR2 [6]): dose-dependent and wash-resistant inhibition; influx of neutrophils into the lungs ([7]; BALF at 24 h, FIG. 7a): significantly decreased; influx of macrophages into the lungs ([7]; BALF at 24 h, FIG. 7b): significantly decreased; ozone-induced lung damage (protein levels in the BALF) ([7]; FIG. 7c): protected against ozone-induced lung damage; bioavailability following oral administration ([2]; Beagle dogs, 5 mg/kg oral in Gelucire 44/14): improved; neutrophil influx (neutrophil influx [3]; 0.05 mg/kg p.o., FIG. 5): decrease of neutrophil influx; neutrophil influx (neutrophil influx [3]; doses in excess of 1 mg/kg p.o., FIG. 5): increase in neutrophil influx
					0.079 µM	COc1ccc(B(O)O)c(CSc2ccc(C(=O)Nc3ccc(F)cc3)cn2)c1 [Compound 4, 6-(2-boronic acid-5-methoxy-benzylsulfanyl)-N-(4-fluoro-phenyl)-nicotinamide]	
					> 5 µM	Cc1nn(-c2ccccc2)nc1CSc1ccc(C(=O)Nc2ccc(F)cc2)cn1 [Compound 48]	
					> 5 µM	O=C(Nc1ccc(F)cc1)c1ccc(SC2CCOC2=O)nc1 (stereo not shown) [Compound 81]	
